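Compound exposure: 48 hours, 5 concentrations, 96-well plates. At the GI50, growth is halved. The concentration for full growth arrest is given as TGI.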
What was measured:
Test in all cases: inhibition of tumour cell growth, NCI panel, 48 h
[1] = test system: U251 CNS
[2] = test system: NCI-H460 lung
[3] = test system: A498 renal
[4] = test system: NCI-H23 lung
[5] = test system: RXF 393 renal
[6] = test system: SNB-19 CNS
[7] = test system: IGROV1 ovarian
[8] = test system: K-562 leukemia
[9] = test system: HOP-92 NSCLC
[10] = test system: NCI/ADR-RES ovarian

Row | SMILES | TGI [1] [µM] | TGI [2] [µM] | TGI [3] [µM] | TGI [4] [µM] | TGI [5] [µM] | TGI [6] [µM] | TGI [7] [µM] | TGI [8] [µM] | TGI [9] [µM] | TGI [10] [µM] | GI50 [10] [µM] | GI50 [1] [µM] | GI50 [2] [µM] | GI50 [3] [µM] | GI50 [4] [µM] | GI50 [5] [µM] | GI50 [6] [µM] | GI50 [7] [µM] | GI50 [9] [µM] | GI50 [8] [µM]
1 | C=CCCCn1ccc2ccccc21 | > 100 | > 100 | > 100 | > 100 | > 100 | > 100 | > 100 | > 100 | > 100 |  |  |  |  |  |  |  |  |  |  | 
2 | NC(=O)/C(=C\c1ccncc1)c1cccc2ccccc12 | > 100 | > 100 |  | > 100 | > 100 | > 100 | > 100 | > 100 | > 100 | > 100 |  |  |  |  |  |  |  |  |  | 
3 | O=C(CSc1nc2ccccc2nc1-c1ccccc1)Nc1ccc(Cl)cc1 | 67.7 | 36.8 | > 100 | > 100 | 62.7 | > 100 | > 100 |  | 63.5 | 91.5 | 24.9 | 23.6 | 11.8 | 31.4 | 30.5 | 19.1 | 35.9 | 46.4 | 15.4 | 
4 | Cc1ccc(-n2c3nc(=O)n(C)c(=O)c-3nc3ccccc32)cc1 | 39.8 | 17.3 | > 100 | 11.8 | > 100 | 33.5 | 92.1 | 53.7 |  |  |  |  |  |  |  |  |  |  |  | 
5 | COc1cc2c(c(OC)c1O)-c1ccc(OC)c(=O)cc1[C@@H](NC(=O)C(F)(F)F)CC2 | > 100 |  | 2.21 |  |  | > 100 | 0.695 | > 100 | > 100 | > 100 |  |  |  |  |  |  |  |  |  | 
6 | CC1CN(c2ccc(Cl)cc2)CC(C)(C)OC(=O)O1 (stereo not drawn) | > 100 | > 100 |  | > 100 | > 100 | > 100 | > 100 | > 100 | > 100 |  |  |  |  |  |  |  |  |  |  | 
7 | COCc1c(CO)cnc(C)c1OC1OC(CO)C(O)C(O)C1O (stereo not drawn) | > 100 | > 100 | > 100 |  | > 100 | > 100 | > 100 | > 100 |  |  |  |  |  |  |  |  |  |  |  | 
8 | COc1ccc2c(c1O)C(=O)C(CCC(=O)O)CC2 (stereo not drawn) | > 100 | > 100 | > 100 | > 100 | > 100 | > 100 | > 100 |  | > 100 |  |  |  |  |  |  |  |  |  |  | 
9 | COc1cc(OC)c2ssc3c(OC)cc(OC)c4ssc1c2-c43 | > 100 | > 100 | > 100 | > 100 | > 100 | > 100 | > 100 | > 100 |  |  |  |  |  |  |  |  |  |  |  | 
10 | NC(=NCCCC1(c2ccccc2)CCCC1)Nc1ccc(Cl)cc1 | 3.11 | 3.42 | 3.29 | 3.35 | 2.88 | 3.98 |  | 4.45 | 2.85 | 3.34 | 1.77 | 1.69 | 1.69 | 1.75 | 1.69 | 1.47 | 1.81 |  | 1.36 | 1.55
11 | COc1cc(Br)c(CC2(C#N)c3ccccc3C3C(N2C(=O)c2ccccc2)C3(Cl)Cl)cc1OC (stereo not drawn) | > 65.5 | > 65.5 |  | > 65.5 | > 65.5 | > 65.5 | > 65.5 | > 65.5 | > 65.5 |  |  |  |  |  |  |  |  |  |  | 
12 | CCOC(=O)Cc1nc2ccccc2s1 | 30.7 | 39.6 | 36 | 29.3 | 35.3 | > 100 | > 100 | 71.9 |  |  |  |  |  |  |  |  |  |  |  | 
13 | CC(/C=C/C(=O)c1sc(-n2nc(-c3ccccc3)cc2-c2ccccc2)nc1C)=C\c1ccccc1 | > 100 | > 100 | > 100 | 68.1 | > 100 | > 100 | > 100 | > 100 |  |  |  |  |  | > 100 |  | > 100 |  |  |  | 
14 | CC1=C(C(=O)Nc2ccccc2C)C(c2ccc(C3C(C(=O)Nc4ccccc4C)=C(C)NC(C)=C3C(=O)Nc3ccccc3C)cc2)C(C(=O)Nc2ccccc2C)=C(C)N1 | 7.34 | 24.9 | 29 | 9.6 | 17.6 | 29.4 | 9.5 | 25.4 | 20.6 |  |  |  |  |  |  |  |  |  |  | 
15 | COC(=O)NC1(NC(=O)OC)NC(=O)c2cc(OC)c(OC)cc2N1 |  | > 100 |  | > 100 |  | > 100 | > 100 | > 100 |  | > 100 |  |  |  |  |  |  |  |  |  | 
16 | COc1c2c3ccccc3nc-2n(C)c2ccccc12 | 32.7 | 32.1 | 24.8 | 33.6 | 78.1 | > 100 | > 100 | > 100 |  | 34.8 | 7.33 | 7.81 | 6.26 | 10.1 | 11.7 | 21.3 | 17.1 | 24.3 |  | 11.5
17 | NCCCCCCCCn1c2c(c3ccccc3c1=O)C(=O)c1ccccc1-2 | 35.9 | 24.8 | 15.8 | 21.6 | > 100 | 80.8 |  | 3.67 | 8.47 | 85.1 | 4.29 | 13.4 | 3.66 | 3.48 | 4.57 | 4.58 | 5.9 |  | 2.4 | 1.87
18 | O=Nc1ccc(O)c2ccccc12 | 3.17 | 13.5 | 28.6 | 4.17 | 8.24 | 6.65 | 3.29 |  | 9.01 | 6.61 | 1.11 | 1.65 | 3.66 | 15.1 | 1.45 | 2.86 | 2.31 | 1.51 | 3.31 | 
19 | O=C(O)C1=C(C(=O)Nc2ccccc2)C2C=CC1C2 (stereo not drawn) | > 100 | > 100 | > 100 | > 100 | > 100 | > 100 | > 100 | > 100 | > 100 |  |  |  |  |  |  |  |  |  |  | 
20 | Sc1ccc2ccccc2c1CNCc1ccccc1 | 30.8 | > 100 | 95.5 | 59.7 | 26 | > 100 | 6.97 | 39 |  | 98.1 |  |  |  |  |  |  |  |  |  | 

Source: PubChem BioAssay (NCI)
